Reference: US20090298838A1, “Method for Determination of Effective Dose of Methotrexate” (StaGen Co., Ltd., priority 2005, published 2009)
Marks after values point to notes of the source that are not given here.

Tests used:
[1] = tested on: patients suffering from rheumatoid arthritis; assay: Relationship between genotype of A1298C polymorphism in the MTHFR gene and dose of methotrexate 12 months after start of administration (157 patients); assay type: in vivo, human; conditions: for Risk ratio of high dose: high dose = more than 6 mg/week at 12 months
Method: Target patients were 157 patients (M/F=24/133) suffering from rheumatoid arthritis who were attending to Institute of Rheumatology Tokyo Women's Medical University Hospital. All of those patients were different from patients examined in Non-Patent Document 3.
Examinations were performed on genotypes of A1298C in the MTHFR gene in these 157 patients suffering from rheumatoid arthritis and doses of methotrexate to the patients 12 months after a start of administration.
Genomic DNA was extracted from leukocytes in peripheral blood of each patient suffering from rheumatoid arthritis. From the genomic DNA, a DNA region including A1298C in the MTHFR gene was amplified by PCR. The primers shown in SEQ ID NO: 1 and SEQ ID NO: 2 in Sequence Listing were used for the amplification.
The DNA amplification reaction was performed in a system of a total volume of 50 μl, which contains 5 μl of 10×PCR Buffer (Applied Biosystem, Japan), 0.5 μl (=2.5 U) of AmpliTaq Gold (Applied Biosystem, Japan), 5.01 of 8 mM dNTP (200 μM of each dNTP), and 1 μl of each 10 pmole primer (0.2 μM of each primer). Conditions of the PCR included: totally 34 cycles of denaturing at 95° C. for 10 minutes, of reactions each at 95° C. for 30 seconds, at 65° C. for 30 seconds, and at 72° C. for 60 seconds; and final extension at 72° C. for 7 minutes.
The products amplified by the PCR were cut by the restriction enzyme Fnu4I and subjected to electrophoresis to examine whether they were cut or not, to thereby determine the genotypes (A/A, A/C, C/C) in each patient.
Alleles and genotypes in group were compared by using Fisher's exact test for statistic analysis and Chi-square test, and Excel was used as a statistical software.
In the present Example, a dose of more than 6 mg/week 12 months after the start of the administration of the methotrexate was defined as a high dose, and otherwise defined as a low dose. Individuals were classified into A/A, A/C, and C/C based on the genotypes of A1298C polymorphism in the MTHFR and summarized to a relationship between the genotypes and the high dose. As shown in FIG. 1 and Table 2, a ratio of the high dose of the methotrexate was high in the order of A/A>A/C>C/C in the genotypes. […] A possibility that patients having the A/A genotype are required to have a high dose of the methotrexate is 49%. Compared with this, possibilities of patients having the A/C genotype and patients having the C/C genotype were 28% and 13%, respectively (Table 2 and FIG. 1). There were a difference of 1.7 (risk ratio, P<0.05) between A/A and A/C, and a difference of 3.8 (risk ratio, P<0.05) between A/A and C/C.
Table 3 and FIG. 2 show a relationship between the A/A genotype of A1298C polymorphism in the MTHFR and a dose and a relationship between the other genotypes (A/C and C/C) and a dose in all the subjects of the patients suffering from the rheumatoid arthritis. In the present reference example, the dose of more than 6 mg/week 12 months after the start of the administration of the methotrexate was defined as a high dose, and otherwise defined as a low dose. Genotypes of A1298C polymorphism in the MTHFR were classified into A/A and other genotype and summarized to a relationship between the genotypes and the high dose.

[2] = tested on: patients suffering from the rheumatoid arthritis; conditions: A/A genotype (68 individuals) versus A/C and C/C (31 individuals); administration for at least 3 months; cited from earlier work

CN(Cc1cnc2nc(N)nc(N)c2n1)c1ccc(C(=O)N[C@@H](CCC(=O)O)C(=O)O)cc1 [methotrexate]
Ratio of high dose ([1]; A/A genotype, final dose more than 6 mg/week 12 months after start of administration): 0.485*
Ratio of high dose ([1]; A/A genotype, final dose more than 6 mg/week 12 months after start of administration, listed as MTX): 0.485*,**
Possibility that patients are required to have a high dose ([1]; A/A genotype, more than 6 mg/week at 12 months): 49%
Risk ratio of high dose ([1]; A/A versus A/C genotype): 1.7
Risk ratio of high dose ([1]; A/A versus C/C genotype): 3.8
Ratio of high dose ([1]; A/C + C/C genotypes, dose more than 6 mg/week 12 months after start of administration): 0.259}
Ratio of high dose ([1]; A/C genotype, final dose more than 6 mg/week 12 months after start of administration): 0.283*
Possibility that patients are required to have a high dose ([1]; A/C genotype, more than 6 mg/week at 12 months): 28%
Ratio of high dose ([1]; C/C genotype, final dose more than 6 mg/week 12 months after start of administration): 0.125**
Possibility that patients are required to have a high dose ([1]; C/C genotype, more than 6 mg/week at 12 months): 13%
Ratio of high dose ([1]; Total, all genotypes (157 persons), final dose more than 6 mg/week 12 months after start of administration): 0.408
Individuals classified to a high dose ([1]; either A/C or C/C genotype, more than 6 mg/week at 12 months): 26%
Proportion ratio of patients administered more than 5 mg/week [2]: 1.78
